Measurements as given in patent EP0513703A2, “Carbamate esters of eseroline having anticholinesterase activity, a process for their preparation and relative pharmaceutical compositions containing them as the active principle” (priority 1991, dated 1992).
“And” between values parts separate entries of the source, which are not always exact repeats. Identical values can stand only once.

Experiments:
rabbit [1] = assay: Effect on the duration of the curarization by succinylcholine (class D derivatives); assay type: in vivo; conditions: anesthetized rabbit, 0.5 mg intravenous
mice (Swiss strain) [2] = assay: Acute toxicity, LD50 by oral route in mice (class D derivatives); assay type: in vivo; conditions: mouse, suspension in 2 % carboxymethylcellulose, observation 7 days
Text: The letal doses 50 (LD50) by oral route (suspension in 2 % carboxymethylcellulose) are reported hereinbelow: TABLE 6

mouse [3] = assay: Spontaneous motility, Dews method modified according to Carminati (class D derivatives); assay type: in vivo; conditions: mouse (Swiss)
Text: (§1) The Dews method was used, modified according to Carminati (Arch. int. Pharmacodyn. et Thér 181, 68,1969).

[4] = system: acetylcholinesterase (AchE); assay type: in vivo, Wistar male rats; conditions: rat, oral, 1-2 mg/kg
[5] = system: mice (Swiss strain of both sexes); assay: Acute toxicity, LD50 by oral administration in mice (class F derivatives); conditions: mice, oral administration
[6] = target: T1, AChE (acetylcholinesterase) on the mouse brain (Mus musculus, UniProt P21836); assay: Inhibition of AChE on the mouse brain after single doses (class F derivatives); assay type: in vivo; conditions: single doses (0.4-7 mg/kg)
T1 construct: from tissue; host or cells: mouse brain
T1 sequence (P21836 32-614): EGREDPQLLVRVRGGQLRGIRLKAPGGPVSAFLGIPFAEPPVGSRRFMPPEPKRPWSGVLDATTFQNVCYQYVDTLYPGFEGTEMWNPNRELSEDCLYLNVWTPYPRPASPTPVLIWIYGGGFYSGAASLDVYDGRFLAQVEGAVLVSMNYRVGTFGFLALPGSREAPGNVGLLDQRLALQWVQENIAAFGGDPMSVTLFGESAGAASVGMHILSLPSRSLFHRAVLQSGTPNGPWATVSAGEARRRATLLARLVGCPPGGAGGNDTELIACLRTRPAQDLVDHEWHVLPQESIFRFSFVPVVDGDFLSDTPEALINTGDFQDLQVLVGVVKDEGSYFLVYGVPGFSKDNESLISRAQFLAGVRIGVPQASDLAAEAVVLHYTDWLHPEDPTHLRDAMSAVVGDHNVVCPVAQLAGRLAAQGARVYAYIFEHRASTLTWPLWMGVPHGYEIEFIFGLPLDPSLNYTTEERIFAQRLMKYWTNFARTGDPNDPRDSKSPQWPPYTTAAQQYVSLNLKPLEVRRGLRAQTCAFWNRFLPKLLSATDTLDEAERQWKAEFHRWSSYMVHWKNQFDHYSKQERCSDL

[7] = Pharmacokinetics after oral and intramuscular administration (class F derivatives); assay type: in vivo; conditions: rats; for maximum peak / time of the maximum peak after the oral administration: oral administration 7 mg/kg
Description: The kinetics of MGR001, MGR002, and MGR003 is determined in rats after oral administration and intramuscular of respectively 7 and 3.5 mg/kg. The maximum peak of 30 µg/ml is found 1 hour after the oral administration.

motor activity [8] = assay: Antagonistic effect on the stimulating effect of scopolamine (class F derivatives); assay type: in vivo; conditions: scopolamine 1 mg/kg; for oral dose countering the stimulating effect of scopolamine: oral administration
Description: At the dose of 1 mg/kg the scopolamine produce a clear stimulating effect (100 % of motor activity increase). This is countered by the oral administration of 2.5 mg of the three products MGR001, MGR002 and MGR003.

[9] = Pharmacokinetics, plasma level by HPLC (MGS101); assay type: in vivo, Wistar male rats; conditions: rat, 6 mg/kg/os
Description: The presence of said substance in plasma was detected by HPLC.
With the optimized method the detection limit was of 0.15 µg per ml of plasma.

[10] = system: acetylcholinesterase (AchE); assay type: in vivo, Wistar male rats; conditions: rat; for inhibitory cerebral and serumal acetylcholinesterase activity (in words): oral, 1.5 to 4.5 mg/kg
mouse [11] = assay: Spontaneous motility, Dews method modified according to Carminati (class A derivatives); assay type: in vivo; conditions: mouse (Swiss), oral, starting from minimum doses of 4-6 mg/kg
Text: as §1

SWISS male mice = assay: Electroencephalographic activity (class A derivatives); assay type: in vivo; conditions: 6 mg/kg/os, in the course of the successive 30 minutes
rabbit [12] = assay: Effect on the duration of the curarization by succinylcholine (class A derivatives); assay type: in vivo; conditions: anesthetized rabbit, 0.8 mg/kg intravenous
Text: . […] By using the same method (male rabbits of the tawny strain of Bourgogne; […]

mice (Swiss strain) [13] = assay: Acute toxicity, LD50 by oral route in mice (class A derivatives); assay type: in vivo; conditions: mouse, suspension in 2 % carboxymethylcellulose, observation 7 days
Text: The letal doses 50 (LD50) by oral route (suspension in 2 % carboxymethylcellulose) are reported herinbelow: TABLE 1

motor activity [14] = assay: Antagonist effect on the stimulating effect of scopolamine (class C derivatives); assay type: in vivo; conditions: scopolamine 1 mg/kg
Description: This is countered by the oral administration of 2.5 mg of ES001, ES002, ES003.

motor activity [15] = assay: Antagonistic effect on the stimulating effect of scopolamine (class B derivatives); assay type: in vivo; conditions: scopolamine 1 mg/kg
Description: At the dose of 1 mg/kg, scopolamine produces an evident stimulating effect (100% increase in motor activity).
This effect is countered by the oral administration of 2.5 mg of the above mentioned compounds.

mouse [16] = assay: Toxicity, LD50 by intraperitoneal route (class C derivatives); assay type: in vivo
Text: In the following table reported are the LD50 values determined on mouse for the compounds listed and compared with the corresponding LD50 value for physostigmine, administered by the same (intraperitoneal) route.

[17] = system: anticholinesterase activity, on the mouse brain; assay: Inhibition of cholinesterase activity on the mouse brain after single doses (class C derivatives); assay type: in vivo
[18] = acetylcholinesterase inhibition 20 minutes after oral administration, limits in brackets

## CNCCCCCNC(=O)Oc1ccc2c(c1)[C@]1(C)CCN(C)[C@@H]1N2C [MGF002, (3a S-cis) - 1,2,3,3a,8,8a hexahydro - 1,3a,8 - trimethyl pyrrol [2,3,b]-indol-5-ol-N-methyl-aminopentyl carbamate ester]
Rabbit [1]
  curare effect of succinylcholine compared with physostigmine: prolonged in the same way as physostigmine the curare effect of succinylcholine
Mice (Swiss strain) [2]
  LD50 per os: 436.72 ± 23.45 mg/kg
Mouse [3]
  oral dose causing a significant decrease of the spontaneous motility: 2.5 to 5 mg/kg
[4]
  inhibitory acetylcholinesterase activity (in words): clear inhibitory dose-dependent and reversible

## CN1CC[C@@]2(C)c3cc(OC(=O)NCCCCCCCN)ccc3N(C)[C@@H]12 [MGF005, (3a S-cis) - 1,2,3,3a,8,8a hexahydro - 1,3a,8 - trimethyl pyrrol [2,3,b]-indol-5-ol-amino heptyl carbamate ester]
Mice (Swiss strain) [2]
  LD50 per os: 428.42 ± 56.21 mg/kg
Mouse [3]
  oral dose causing a significant decrease of the spontaneous motility: 2.5 to 5 mg/kg
[4]
  inhibitory acetylcholinesterase activity (in words): clear inhibitory dose-dependent and reversible

## CC(=O)OCC(COP(=O)(O)OCCNC(=O)Oc1ccc2c(c1)[C@]1(C)CCN(C)[C@@H]1N2C)OC(C)=O (stereo partly drawn) [MGR001, (3aS-cis) 1,2,3,3a,8,8a-hexahydro-1,3a,8 trimethyl-pyrrol-[2,3-b]-indol-5-ol-diacetylglycerylphosphoryl-ethyl carbamate ester]
[5]
  LD50: 500 mg/kg
[6]
  inhibition of AChE (acetylcholinesterase) on the mouse brain (in words): dose-dependence and reversible inhibition
[7]
  liver kinetics / excretion: pass through into the urine unchanged
  maximum peak: 30 µg/mL
  time of the maximum peak after the oral administration: 1 h
Motor activity [8]
  oral dose countering the stimulating effect of scopolamine: 2.5 mg

## CN1CC[C@@]2(C)c3cc(OC(=O)NCCOP(=O)(O)OCC(O)CO)ccc3N(C)[C@@H]12 (stereo partly drawn) [MGR002, (3aS-cis) 1,2,3,3a,8,8a-hexahydro-1,3a,8 trimethyl-pyrrol-[2,3-b]-indol-5-ol-glycerylphosphoryl-ethyl carbamate ester]
[5]
  LD50: 485 mg/kg
[6]
  inhibition of AChE (acetylcholinesterase) on the mouse brain (in words): dose-dependence and reversible inhibition
[7]
  liver kinetics / excretion: pass through into the urine unchanged
  maximum peak: 30 µg/mL
  time of the maximum peak after the oral administration: 1 h
Motor activity [8]
  oral dose countering the stimulating effect of scopolamine: 2.5 mg

## CC(=O)OCC(COP(=O)(O)OC[C@H](NC(=O)Oc1ccc2c(c1)[C@]1(C)CCN(C)[C@@H]1N2C)C(=O)O)OC(C)=O (stereo partly drawn) [MGR003, (3aS-cis) 1,2,3,3a,8,8a-hexahydro - 1,3a,8 trimethyl-pyrrol-[2,3-b]-indol-5-ol-diacetyl-glycerylphosphoryl-2L -carboxylethyl carbamate ester]
[5]
  LD50: 350 mg/kg
[6]
  inhibition of AChE (acetylcholinesterase) on the mouse brain (in words): dose-dependence and reversible inhibition
[7]
  maximum peak: 30 µg/mL
  time of the maximum peak after the oral administration: 1 h
Motor activity [8]
  oral dose countering the stimulating effect of scopolamine: 2.5 mg

## CC[C@H](C)[C@H](NC(=O)Oc1ccc2c(c1)[C@]1(C)CCN(C)[C@@H]1N2C)C(=O)O [MGS101]
[9]
  concentration in plasma after 20 minutes: 15.91 ± 4.21 µg/mL
  concentration in plasma after 24 hours: 4.31 ± 1.98 µg/mL
  concentration in plasma at the twelfth hour: 14.22 ± 3.12 µg/mL
  maximum peak in plasma: 33.81 ± 6.15 µg/mL
  time of the maximum peak in plasma: 90 '
[10]; 3.5 mg/kg/OS
  INHIBITION % OF ACETYLCHOLINESTERASE (AchE) after 60 minutes brain: 38.71 ± 6.12%
  INHIBITION % OF ACETYLCHOLINESTERASE (AchE) after 60 minutes serum: 31.6 ± 4.25%
  INHIBITION % OF ACETYLCHOLINESTERASE (AchE) after 120 minutes serum: 20.12 ± 2.40%
[10]; [18]
  ED50 (mg/kg/os) brain: 2.89 (1.83 - 4.59) mg/kg/os
  ED50 (mg/kg/os) serum: 2.89 (1.82 - 4.49) mg/kg/os
[10]
  inhibitory cerebral and serumal acetylcholinesterase activity (in words): clear inhibitory dose-dependent and reversible
Mouse [11]
  decrease of the spontaneous motility (on average): ~-30%
SWISS male mice
  modifications of the electroencephalogram: increase of the amplitude and a decrease of the frequency of the electroencephalogram
Rabbit [12]
  effect on the curarization by succinylcholine compared with physostigmine: induced the same anticholinesterase effect of physostigmine
Mice (Swiss strain) [13]
  LD50 per os: 332.8 ± 6.20 mg/kg

## CCCCCCCOC(=O)[C@@H](NC(=O)Oc1ccc2c(c1)[C@]1(C)CCN(C)[C@@H]1N2C)[C@@H](C)CC [MGS102, (3aS-cis) 1,2,3,3a,8,8a hexahydro-1,3a, 8-trimethyl-pyrrol (2,3-b) indol-5-ol-L-(3-methyl-2 carboxy-n-heptyl)-butyl-carbamate]
[10]
  inhibitory cerebral and serumal acetylcholinesterase activity (in words): clear inhibitory dose-dependent and reversible
Mouse [11]
  decrease of the spontaneous motility (on average): ~-30%
Rabbit [12]
  effect on the curarization by succinylcholine compared with physostigmine: induced the same anticholinesterase effect of physostigmine
Mice (Swiss strain) [13]
  LD50 per os: 358.3 ± 18.83 mg/kg

## CN1[C@@H]2C[C@@H](OC(=O)[C@H](CO)c3ccccc3)C[C@H]1[C@@H]1O[C@@H]12 [scopolamine, reference compound]
Motor activity [14]
  increase in motor activity: 100%
Motor activity [15]
  increase in motor activity: 100%
Motor activity [8]
  motor activity increase: 100%

## trimethyl -1,3a,8-hexahydro-1,2,3a,8,8a-pyrrol(2,3-b)indol-5-(3aS,8aR)12-hydroxystearylpropylcarbamate [ES003]
Motor activity [14]; oral administration
  oral dose countering the stimulating effect of scopolamine: 2.5 mg
Mouse [16]
  LD50 (mg/kg i.p): >40 mg/kg i.p and <80 mg/kg i.p
[17]; even at higher doses
  suppression of the enzymatic activity: do not completely suppress the enzymatic activity
[17]; mouse brain
  duration of the inhibitory activity compared with physostigmine: lasts longer than that of physostigmine
[17]; single doses in the range 0.4-7mg/kg
  inhibition of the anticholinesterase activity, on the mouse brain (in words): dose-dependence, reversible inhibition
